Values after ≈ are worked out from the molar mass of the structure shown.
Test system: Mycobacterium tuberculosis
Experiment: Antitubercular activity against Mycobacterium tuberculosis H37Rv ATCC 27294 by BACTEC 460 radiorespirometric assay
Type: functional

| Compound | MIC [µg/mL] |
| --- | --- |
| CC1(C)CC[C@]2(C(=O)O)CC[C@]3(C)C(=CC[C@@H]4[C@@]5(C)CC[C@@H](O)C(C)(C)[C@@H]5CC[C@]43C)[C@@H]2C1 | 16 (≈ 35 µM) |
| CC1(C)CC[C@]2(C(=O)O)CC[C@]3(C)C(=CC[C@@H]4[C@@]5(C)CC[C@H](O)C(C)(C)[C@@H]5CC[C@]43C)[C@@H]2C1 [OLEANOLIC_ACID] | 50 (≈ 109 µM) |
| CC1(C)CC[C@]2(C(=O)O)CC[C@]3(C)C(=CC[C@@H]4[C@@]5(C)CCC(=O)C(C)(C)[C@@H]5CC[C@]43C)[C@@H]2C1 [OLEANONIC ACID] | 16 (≈ 35.2 µM) |
| CO[C@H]1/C=C/O[C@@]2(C)Oc3c(C)c(O)c4c(O)c(c(/C=N/N5CCN(C)CC5)c(O)c4c3C2=O)NC(=O)/C(C)=C\C=C\[C@H](C)[C@H](O)[C@@H](C)[C@@H](O)[C@@H](C)[C@H](OC(C)=O)[C@@H]1C [RIFAMPIN] | 0.16 (≈ 0.194 µM) |
| C=C(C)[C@@H]1CC[C@]2(C(=O)O)CC[C@]3(C)[C@H](CC[C@@H]4[C@@]5(C)CC[C@@H](O)C(C)(C)[C@@H]5CC[C@]43C)[C@@H]12 [EPIBETULINIC ACID] | 50 (≈ 109 µM) |
| CC(C)[C@@H]1CC[C@]2(C)[C@H](CC=C3[C@@H]4CC(C)(C)CC[C@]4(C(=O)O)CC[C@]32C)[C@@]1(C)CCC(=O)O | 128 (≈ 271 µM) |
| CC1(C)CC[C@@]23CC[C@]4(C)[C@@](C=C[C@@H]5[C@@]6(C)CC[C@@H](O)C(C)(C)[C@@H]6CC[C@]54C)(OC2=O)[C@@H]3C1 | 64 (≈ 141 µM) |
| CC1(C)CC[C@]2(C(=O)O)CC[C@]3(C)C(=C2C1)C=C[C@@H]1[C@@]2(C)CC[C@@H](O)C(C)(C)[C@@H]2CC[C@]13C | 64 (≈ 141 µM) |

Source: ChEMBL document CHEMBL1155637, “Oleanane triterpenes from Junellia tridens” (2000)
